Measured values as given in US6680025B2, “Device and method for photoactivation” (Cerus Corporation, priority 1989, dated 2004).

Legend:
Assay type in all cases: biochemical
human placental DNA = test: PCR in presence of AMDMIP and DMSO co-solvent; details: AMDMIP 200 μg/ml
Protocol: In this example, the effect of DMSO on PCR amplification in the presence of high concentrations of sterilizing compound (AMDMIP) was investigated. Samples were prepared for PCR which contained 1 μg of human placental DNA either with or without (unirradiated) AMDMIP (200 μg/ml). The samples were amplified 30 cycles under standard PCR conditions in the presence of 0%, 1%, 5% or 10% DMSO. The reaction mix contained α-^32P-dCTP. Following amplification, the samples were analyzed by PAGE (data not shown).

[1] = test system: HIV 115-mer PCR product carryover; test: Post-amplification sterilization, isopsoralen added after amplification (Example 54); details: for sterilization of carryover: AMDMIP 100 μg/ml, PTI 15 minutes, 10^6 copies
Description: In this embodiment, the method of sterilization comprises: 1) providing PCR reagents, 2) providing template, 3) providing polymerase, 4) mixing PCR reagents, template, and polymerase to initiate PCR, 5) cycling to provide PCR product, 6) providing isopsoralen, 7) adding isopsoralen to PCR product, and 8) irradiating PCR product.
For the purposes of this determination, the steps of the following experiment include (see FIG. 40): a) preparing template, b) providing template, c) providing PCR reagents, d) providing polymerase, e) mixing PCR reagents, template, and polymerase to initiate PCR, f) cycling to provide PCR product, g) carrying over of PCR product into new tubes, h) providing isopsoralen, i) adding isopsoralen to the carryover, j) irradiating, k) addition of new PCR reagents, and 1) subsequent PCR.
Steps a), b), c), d), e), and f). PCR product was provided as described earlier.
Step g) Carrying over of PCR product. Aliquots of PCR product were added into new reaction tubes at 10^6 copies per tube.
Step h) Providing Isopsoralen. AMDMIP was synthesized as described and diluted.
Step i) Addition of Isopsoralen ANDDMIP (100 μg/ml, approximately 10^−4 M) was added reaction vessels containing carryover.
Step i) Irradiation. Irradiation was performed on the PTI device to avoid photoproduct. Three of the new reaction tubes were irradiated while the others were left unirradiated as controls. Irradiation was for 15 minutes at RT as above.
Step k) PCR Reagents and Tag Polymerase Were Added to Appropriate Concentrations. The final volume was increased two fold such that AMDMIP photoproducts were at 50 μg/ml.
Step l) Subsequent PCR. Amplification was performed, in closed reaction vessels using primer pair SK-38/39 for 20, 25 or 30 cycles, using the temperature profile for cycling described above in the presence of α-^32P-dCTP.

HIV 115-mer = test: Crosslinkable Oligonucleotide Probe Analysis (COP) after sterilization
Protocol: Preparation of Samples: The HIV 115-mer system with primers SK-38/SK-39 was used for the experiment (see FIG. 36, “HIV Oligonucleotide System”). Two types of starting template were used: previously amplified 115-mer or genomic DNA, isolated from an individual known to be infected with HIV (MACS sample). For previously amplified 115-mer between 10^5 and 10^6 copies were used for starting template. For the genomic (MACS) sample, approximately 1 μg (3×10^5 copies) of genomic DNA were used. Two PCR samples were prepared for each type of template then amplification was carried out for either 20 or 30 cycles. One of the two PCR samples contained AMDMIP at 200 μg/ml while the other was AMDMIP free. Following amplification, the AMDMIP containing samples were divided and half were irradiated. Analysis (OH or COP) was then done on the three samples from each set (AMDMIP free, AMDMIP unirradiated, and AMDMIP irradiated) for each cycle number. The AMDMIP free samples served as control, the AMDMIP unirradiated sampes adressed the effect of non-covalently bound AMDMIP on detection, and AMDMIP irradiated samples addressed the effect of covalently bound AMDMIP on detection.
COP and OH assays were performed a follows. 10 μl of the PCR reaction mixture was added to 3.3 μl of “probe mix” [5′-labelled SK-19 (normal or monoadducted) at 10^−8 M containing EDTA and an appropriate salt mixtures], overlaid with 30-40 μl of light mineral oil, then heated to 95-100° C. for 5 minutes. For COP, the hybridization mixture as placed in the PTI device at 56° C. and irradiated for 15 minutes. Following this, loading dyes (containing urea or formamide) were added, the sample heated to 95-100° C. for 5 minutes, quick chilled on wet ice, then loaded on a denaturing PAGE gel followed by electrophoresis under denaturing conditions. For OH reactions, the hybridization mixture was incubated at 56° C. for 30 minutes, loading dyes added, and aliquots loaded directly into a native PAGE gel followed by electrophoresis under native conditions. 1. Samples 1-6 contain previously amplified 115-mer that was re-amplified either 20 (samples 1,3,5) or 30 (Samples 2,4,6) cycles then detected by COP. Samples 1 & 2 are controls (without AMDMIP); samples 3 and 4 are (with AMDMIP and with light) sterilized samples; samples 5 & 6 are (with AMDMIP but without light) controls. The bands corresponding to amplified 115-mer crosslinked to labelled 41-mer probe (SK-19 MA) are the upper bands in FIG. 46. Samples 11-16 are the same series except the MACS sample was used as template.

Question: Which results are given for `Cc1oc2ccc3c(C)cc(=O)oc3c2c1CN` [AMDMIP, 4′-Aminomethyl-4,5′-dimethylisopsoralen]?
Answer: product band CPM (human placental DNA; 0% DMSO): 2500 CPM; product band CPM (human placental DNA; 1% DMSO): 2800 CPM; product band CPM (human placental DNA; 5% DMSO): 86,000 CPM; product band CPM (human placental DNA; 10% DMSO): 102,000 CPM; amplification in presence of unirradiated AMDMIP (human placental DNA; no DMSO, 30 cycles): virtually no detectable amplification product; reamplification of carryover with AMDMIP, not light-treated ([1]; 20, 25, 30 cycles): show amplification; sterilization of carryover ([1]; 20 cycles): sterilization appears to be complete; sterilization of carryover ([1]; 25 cycles): reduced relative to controls; sterilization of carryover ([1]; 30 cycles): no significant sterilization is observed; COP hybrid band CPM (HIV 115-mer; sample 3: previously amplified 115-mer, 20 cycles, AMDMIP 200 μg/ml with light): 1944 CPM; COP hybrid band CPM as % of AMDMIP-free control (HIV 115-mer; sample 3: previously amplified 115-mer, 20 cycles, AMDMIP with light): 62%; COP hybrid band CPM (HIV 115-mer; sample 4: previously amplified 115-mer, 30 cycles, AMDMIP 200 μg/ml with light): 36452 CPM; COP hybrid band CPM as % of AMDMIP-free control (HIV 115-mer; sample 4: previously amplified 115-mer, 30 cycles, AMDMIP with light): 83%; COP hybrid band CPM (HIV 115-mer; sample 5: previously amplified 115-mer, 20 cycles, AMDMIP 200 μg/ml without light): 4480 CPM; COP hybrid band CPM as % of AMDMIP-free control (HIV 115-mer; sample 5: previously amplified 115-mer, 20 cycles, AMDMIP without light): 144%; COP hybrid band CPM (HIV 115-mer; sample 6: previously amplified 115-mer, 30 cycles, AMDMIP 200 μg/ml without light): 39596 CPM; COP hybrid band CPM as % of AMDMIP-free control (HIV 115-mer; sample 6: previously amplified 115-mer, 30 cycles, AMDMIP without light): 90%; COP hybrid band CPM (HIV 115-mer; sample 13: MACS genomic DNA, 20 cycles, AMDMIP 200 μg/ml with light): 460 CPM; COP hybrid band CPM as % of AMDMIP-free control (HIV 115-mer; sample 13: MACS genomic DNA, 20 cycles, AMDMIP with light): 52%; COP hybrid band CPM (HIV 115-mer; sample 14: MACS genomic DNA, 30 cycles, AMDMIP 200 μg/ml with light): 41777 CPM; COP hybrid band CPM as % of AMDMIP-free control (HIV 115-mer; sample 14: MACS genomic DNA, 30 cycles, AMDMIP with light): 78%; COP hybrid band CPM (HIV 115-mer; sample 15: MACS genomic DNA, 20 cycles, AMDMIP 200 μg/ml without light): 464 CPM; COP hybrid band CPM as % of AMDMIP-free control (HIV 115-mer; sample 15: MACS genomic DNA, 20 cycles, AMDMIP without light): 53%; COP hybrid band CPM (HIV 115-mer; sample 16: MACS genomic DNA, 30 cycles, AMDMIP 200 μg/ml without light): 35176 CPM; COP hybrid band CPM as % of AMDMIP-free control (HIV 115-mer; sample 16: MACS genomic DNA, 30 cycles, AMDMIP without light): 66%
